Assay: Solubility of C16TR in propellants
Assay type: physicochemical
Conditions: HFA134a, HFA227ea, and HFA152a
From the text: C16TR is insoluble in all commercially available propellants (HFA134a, HFA227ea, and HFA152a) and requires the use of alcohol co-solvent. When formulated with DSPE-PEG2000 and PEG400 for use with an MDI as well as desirable in vivo performance, the formulation required approximately 10% of alcohol co-solvent. Such a high level of alcohol co-solvent may lead to reduced chemical stability and aerosol performance. Unexpected improvement in chemical stability was observed when a switch from ethanol (industry standard cosolvent) to isopropyl alcohol (novel excipient) was made, as in the C16TR-MDI-W formulation.

## CCCCCCCCCCCCCCCCOC(=O)COc1cccc2c1C[C@H]1C[C@@H](O)[C@H](CC[C@@H](O)CCCCC)[C@H]1C2 [Formulation C16TR, Treprostinil palmitil]
  solubility in commercially available propellants: insoluble

Source: patent publication US20240238309A1, “PHARMACEUTICAL FORMULATIONS OF TREPROSTINIL PRODRUGS AND METHODS OF USE THEREOF” (Insmed Incorporated, priority 2020, published 2024)
